Source: patent publication US6355799B1, “Substituted benzene compounds, process for their preparation, and herbicidal and defoliant compositions containing them” (ISK Americas Incorporated, priority 1997, dated 2002)

Legend:
Format in all cases: in vivo
[1] = test system: redroot pigweed (Amaranthus retroflexus, AMARE); experiment: Pre-emerge test, greenhouse herbicide activity screening; settings: rated 14 days after application, 0 = no damage, 100 = complete death
How it was run: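 Sandy loam pots; pre-emerge: sown 1 d pre-spray, surface-watered after, then bottom-watered. Post-emerge: sown 8–21 d before, 2–3 leaf stage, + 0.25% v/v NIS, bottom-watered. Acetone, 187 l/ha track spray, 15–1000 g ai/ha. 0–100 injury score, day 14.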

[2] = test system: barnyardgrass (Echinochloa crus-galli, ECHCG); experiment: as above; settings: rated 14 days after application, 0 = no damage, 100 = complete death
How it was run: (§1)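 Fourteen days after spraying, crop and weed injury was graded visually from 0, no effect, to 100, every plant dead. Test substances were dissolved in acetone and applied at 15–1000 g ai/ha with a flat-fan nozzle. Application was either pre-emergence, one day after sowing, or post-emergence at the 2–3 leaf stage.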

[3] = test system: common ragweed (Ambrosia artemisizfolia L., AMBEL); experiment: as above; settings: rated 14 days after application, 0 = no damage, 100 = complete death
How it was run: as §1

[4] = test system: green foxtail (Setaria viridis, SETVI); experiment: as above; settings: rated 14 days after application, 0 = no damage, 100 = complete death
How it was run: as §1

[5] = test system: ivyleaf morningglory (Ipomoea hederacea, IPOHE); experiment: as above; settings: rated 14 days after application, 0 = no damage, 100 = complete death
How it was run: as §1

[6] = test system: johnsongrass (Sorghum halepense, SORHA); experiment: as above; settings: rated 14 days after application, 0 = no damage, 100 = complete death
How it was run: as §1

[7] = test system: lambsquarters (Chenopodium album, CHEAL); experiment: as above; settings: rated 14 days after application, 0 = no damage, 100 = complete death
How it was run: as §1

[8] = test system: large crabgrass (Digitaria sanguinalis, DIGSA); experiment: as above; settings: rated 14 days after application, 0 = no damage, 100 = complete death
How it was run: as §1

[9] = test system: sicklepod (Cassia obtusifolia, CASOB); experiment: as above; settings: rated 14 days after application, 0 = no damage, 100 = complete death
How it was run: as §1

[10] = test system: velvetleaf (Abutilon theophrasti, ABUTH); experiment: as above; settings: rated 14 days after application, 0 = no damage, 100 = complete death
How it was run: as §1

[11] = test system: field corn (Zea mays L., var. Dekalb 535, CORN); experiment: Pre-emerge test, crop safety; settings: rated 14 days after application, 0 = no damage, 100 = complete death
How it was run: (§2)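 Visual ratings on a 0-100 scale (0 no damage, 100 all plants dead) were taken at 14 days after treatment. Rates of 15-1000 g ai/ha in acetone, 187 l/ha, were sprayed onto soil one day after planting (pre-emerge) or onto 2-3 leaf plants with 0.25% v/v surfactant (post-emerge).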

[12] = test system: upland rice (Oryza sp., var. Tebonnet, RICE); experiment: Pre-emerge test, crop safety; settings: rated 14 days after application, 0 = no damage, 100 = complete death
How it was run: as §2

[13] = test system: barnyardgrass (Echinochloa crus-galli, ECHCG); experiment: Post-emerge test, greenhouse herbicide activity screening; settings: post-emerge, 14 days after application, rating scale 0-100
How it was run: (§3)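 Rating: 0–100 visual injury, 14 DAA. Application: acetone, 187 l/ha, 15–1000 g ai/ha, flat-fan track sprayer with nozzle 40–45 cm above soil or canopy. Post-emerge runs used 0.25% v/v surfactant on 2–3 leaf plants.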

[14] = test system: common ragweed (Ambrosia artemisizfolia L., AMBEL); experiment: as above; settings: post-emerge, 14 days after application, rating scale 0-100
How it was run: as §3

[15] = test system: green foxtail (Setaria viridis, SETVI); experiment: as above; settings: post-emerge, 14 days after application, rating scale 0-100
How it was run: as §3

[16] = test system: ivyleaf morningglory (Ipomoea hederacea, IPOHE); experiment: as above; settings: post-emerge, 14 days after application, rating scale 0-100
How it was run: as §3

[17] = test system: johnsongrass (Sorghum halepense, SORHA); experiment: as above; settings: post-emerge, 14 days after application, rating scale 0-100
How it was run: as §3

[18] = test system: lambsquarters (Chenopodium album, CHEAL); experiment: as above; settings: post-emerge, 14 days after application, rating scale 0-100
How it was run: as §3

[19] = test system: large crabgrass (Digitaria sanguinalis, DIGSA); experiment: as above; settings: post-emerge, 14 days after application, rating scale 0-100
How it was run: as §3

[20] = test system: redroot pigweed (Amaranthus retroflexus, AMARE); experiment: as above; settings: post-emerge, 14 days after application, rating scale 0-100
How it was run: as §3

[21] = test system: sicklepod (Cassia obtusifolia, CASOB); experiment: as above; settings: post-emerge, 14 days after application, rating scale 0-100
How it was run: as §3

[22] = test system: velvetleaf (Abutilon theophrasti, ABUTH); experiment: as above; settings: post-emerge, 14 days after application, rating scale 0-100
How it was run: as §3

[23] = test system: field corn (Zea mays L., var. Dekalb 535, CORN); experiment: Post-emerge test, crop safety; settings: post-emerge, 14 days after application, rating scale 0-100
How it was run: as §1

[24] = test system: upland rice (Oryza sp., var. Tebonnet, RICE); experiment: Post-emerge test, crop safety; settings: post-emerge, 14 days after application, rating scale 0-100
How it was run: as §1

COc1c(Cl)cc(F)c(-n2c(=O)cc(C(F)(F)F)n(C)c2=O)c1NC(=O)c1ccc(I)cc1 [2-66]
Pre-emerge Herbicidal Activity, phytotoxicity rating (0-100), AMARE ([1]; 63 g ai/ha): 100
Pre-emerge Herbicidal Activity, phytotoxicity rating (0-100), AMARE ([1]; 250 g ai/ha): 100
Pre-emerge Herbicidal Activity, phytotoxicity rating (0-100), ECHCG ([2]; 63 g ai/ha): 0
Pre-emerge Herbicidal Activity, phytotoxicity rating (0-100), ECHCG ([2]; 250 g ai/ha): 60
Pre-emerge Herbicidal Activity, phytotoxicity rating (0-100), AMBEL ([3]; 63 g ai/ha): 0
Pre-emerge Herbicidal Activity, phytotoxicity rating (0-100), AMBEL ([3]; 250 g ai/ha): 60
Pre-emerge Herbicidal Activity, phytotoxicity rating (0-100), SETVI ([4]; 63 g ai/ha): 95
Pre-emerge Herbicidal Activity, phytotoxicity rating (0-100), SETVI ([4]; 250 g ai/ha): 100
Pre-emerge Herbicidal Activity, phytotoxicity rating (0-100), IPOHE ([5]; 63 g ai/ha): 40
Pre-emerge Herbicidal Activity, phytotoxicity rating (0-100), IPOHE ([5]; 250 g ai/ha): 80
Pre-emerge Herbicidal Activity, phytotoxicity rating (0-100), SORHA ([6]; 63 g ai/ha): 20
Pre-emerge Herbicidal Activity, phytotoxicity rating (0-100), SORHA ([6]; 250 g ai/ha): 95
Pre-emerge Herbicidal Activity, phytotoxicity rating (0-100), CHEAL ([7]; 63 g ai/ha): 100
Pre-emerge Herbicidal Activity, phytotoxicity rating (0-100), CHEAL ([7]; 250 g ai/ha): 100
Pre-emerge Herbicidal Activity, phytotoxicity rating (0-100), DIGSA ([8]; 63 g ai/ha): 60
Pre-emerge Herbicidal Activity, phytotoxicity rating (0-100), DIGSA ([8]; 250 g ai/ha): 99
Pre-emerge Herbicidal Activity, phytotoxicity rating (0-100), CASOB ([9]; 63 g ai/ha): 35
Pre-emerge Herbicidal Activity, phytotoxicity rating (0-100), CASOB ([9]; 250 g ai/ha): 90
Pre-emerge Herbicidal Activity, phytotoxicity rating (0-100), ABUTH ([10]; 63 g ai/ha): 100
Pre-emerge Herbicidal Activity, phytotoxicity rating (0-100), ABUTH ([10]; 250 g ai/ha): 100
Pre-emerge phytotoxicity rating (0-100), crop damage, CORN ([11]; 63 g ai/ha): 0
Pre-emerge phytotoxicity rating (0-100), crop damage, CORN ([11]; 250 g ai/ha): 15
Pre-emerge phytotoxicity rating (0-100), crop damage, RICE ([12]; 63 g ai/ha): 10
Pre-emerge phytotoxicity rating (0-100), crop damage, RICE ([12]; 250 g ai/ha): 60
phytotoxicity rating ECHCG ([13]; 63 g ai/ha): 70
phytotoxicity rating ECHCG ([13]; 250 g ai/ha): 50
phytotoxicity rating AMBEL ([14]; 63 g ai/ha): 100
phytotoxicity rating AMBEL ([14]; 250 g ai/ha): 75
phytotoxicity rating SETVI ([15]; 63 g ai/ha): 90
phytotoxicity rating SETVI ([15]; 250 g ai/ha): 80
phytotoxicity rating IPOHE ([16]; 63 g ai/ha): 100
phytotoxicity rating IPOHE ([16]; 250 g ai/ha): 90
phytotoxicity rating SORHA ([17]; 63 g ai/ha): 10
phytotoxicity rating SORHA ([17]; 250 g ai/ha): 50
phytotoxicity rating CHEAL ([18]; 63 g ai/ha): 100
phytotoxicity rating CHEAL ([18]; 250 g ai/ha): 100
phytotoxicity rating DIGSA ([19]; 63 g ai/ha): 10
phytotoxicity rating DIGSA ([19]; 250 g ai/ha): 20
phytotoxicity rating AMARE ([20]; 63 g ai/ha): 100
phytotoxicity rating AMARE ([20]; 250 g ai/ha): 100
phytotoxicity rating CASOB ([21]; 63 g ai/ha): 100
phytotoxicity rating CASOB ([21]; 250 g ai/ha): 70
phytotoxicity rating ABUTH ([22]; 63 g ai/ha): 100
phytotoxicity rating ABUTH ([22]; 250 g ai/ha): 100
phytotoxicity rating CORN ([23]; 63 g ai/ha): 15
phytotoxicity rating CORN ([23]; 250 g ai/ha): 70
phytotoxicity rating RICE ([24]; 63 g ai/ha): 50
phytotoxicity rating RICE ([24]; 250 g ai/ha): 90
